Laboratory results: the NIST ThermoML archive (doi:10.1016/j.jct.2007.10.006)
± gives the expanded uncertainty stated by the source.

Details: Crystal; thermal analyzer

- Normal melting temperature: 268.1 ± 1 °C
SMILES: Oc1ccc(/C=C/c2cc(O)cc(O)c2)cc1 [5-[(1E)-2-(4-hydroxyphenyl)-ethenyl]-1,3-benzenediol]
